Data from patent US5250546A, “Amino-alcohol derivatives and processes for their preparation” (Nippon Chemiphar Co., Ltd., priority 1984, dated 1993).
Counter-ions that a name gives are not always drawn.

Tested on: glutamic acid at neuromuscular junctions of crayfish (opener muscles of the first walking legs)
Assay: Blocking effects against glutamic acid at neuromuscular junctions of crayfish (L-glutamic acid-induced depolarization)
Type: cell-based
Conditions: 5 min; suppression rate of depolarization by L-glutamic acid (10^-4 M); 5-minute pretreatment with test compound 2×10^-4 M
Excerpt: The opener muscles of the first walking legs of crayfish were used as experimental materials. The neuromuscular sample was held in a bath in which a physiological solution [composition (mM): NaCl (195), CaCl2 (18), KCl (5.4), tris-maleate buffer (pH 7.5; 10), glucose (11)] for use with the crayfish was perfused at room temperature and at a constant flow rate. A glass micro-electrode filled with a 3M-KCl solution was inserted in a central part of the muscle fiber to intracellularly record changes in the potential of the muscular cell membrane.
The blocking effect of each test compound against glutamic acid was evaluated in terms of the suppression rate to depolarization which was induced by bath-applying L-glutamic acid (10^-4 M) in a 5-minute pretreatment with a solution of the test compound (2×10^-4 M).

Compared with `CCCCC[C@@H](NCCCN1CCCCC1)[C@H](O)c1ccccc1` (racemic) [Compound 6, (1RS,2RS)-1-phenyl-2-(3-piperidinopropylamino)heptan-1-ol dihydrochloride], `CCCCCC[C@H](NCCCN1CCCCC1)[C@H](O)c1ccccc1` (racemic) [Compound 7, (1RS,2SR)-1-phenyl-2-(3-piperidinopropylamino)octan-1-ol dihydrochloride] is lower in inhibition at 200 µM: 100% for the first, 98% for the second.

First: CCCCCCCC[C@H](NCCCN1CCCCC1)[C@H](O)c1ccccc1 (racemic) [Compound 11, (1RS,2SR)-1-phenyl-2-(3-piperidinopropylamino)decan-1-ol dihydrochloride]
Second: CC(C)C[C@@H](NCCCN1CCCCC1)[C@@H](O)c1ccccc1 [Compound 18, (1S,2R)-4-methyl-1-phenyl-2-(3-piperidinopropylamino)pentan-1-ol dihydrochloride]
The inhibition at 200 µM of the first is higher: 100% for the first, 97% for the second.

Going from `CC(C)C[C@H](NCCCN1CCCCC1)[C@H](O)c1ccccc1.Cl.Cl` (racemic) [Compound 15, (1RS,2SR)-4-methyl-1-phenyl-2-(3-piperidinopropylamino)pentan-1-ol dihydrochloride] to `CC(C)C[C@@H](NCCCN1CCCCC1)[C@H](O)c1ccccc1.Cl.Cl` (racemic) [Compound 16, (1RS,2RS)-4-methyl-1-phenyl-2-(3-piperidinopropylamino)pentan-1-ol dihydrochloride], the inhibition at 200 µM falls from 100% to 95%.

Going from `CC(C)C[C@H](NCCCN1CCCC1)[C@H](O)c1ccccc1` (racemic) [Compound 23, (1RS,2SR)-4-methyl-1-phenyl-2-(3-pyrrolidinopropylamino)pentan-1-ol dihydrochloride] to `CC(C)C[C@@H](NCCCN1CCCCC1)[C@H](O)c1ccccc1` [Compound 20, (1R,2R)-4-methyl-1-phenyl-2-(3-piperidinopropylamino)pentan-1-ol dihydrochloride], the inhibition at 200 µM rises from 97% to 98%.

Going from `CC(C)C[C@H](NCCCN1CCOCC1)[C@H](O)c1ccccc1` (racemic) [Compound 25, (1RS,2SR)-4-methyl-2-(3-morpholinopropylamino)-1-phenylpentan-1-ol dihydrochloride] to `CC(C)CC[C@H](NCCCN1CCOCC1)[C@H](O)c1ccccc1` (racemic) [Compound 37, (1RS,2SR)-5-methyl-2-(3-morpholinopropylamino)-1-phenylhexan-1-ol dihydrochloride], the inhibition at 200 µM rises from 90% to 99%.

Going from `CC(C)C[C@H](NCCCN(C)C)[C@H](O)c1ccccc1` (racemic) [Compound 27, (1RS,2SR)-2-(3-dimethylaminopropylamino)-4-methyl-1-phenylpentan-1-ol dihydrochloride] to `CC(C)CC[C@H](NCCCN(C)C)[C@H](O)c1ccccc1` (racemic) [Compound 39, (1RS,2SR)-2-(3-dimethylaminopropylamino)-5-methyl-1-phenylhexan-1-ol dihydrochloride], the inhibition at 200 µM rises from 95% to 100%.

Going from `CC(C)C[C@H](NCCN1CCCCC1)[C@H](O)c1ccccc1` (racemic) [Compound 29, (1RS,2SR)-4-methyl-1-phenyl-2-(2-piperidinoethylamino)pentan-1-ol dihydrochloride] to `CC(C)C[C@H](NCCN1CCCC1)[C@H](O)c1ccccc1` (racemic) [Compound 31, (1RS,2SR)-4-methyl-1-phenyl-2-(2-pyrrolidinoethylamino)pentan-1-ol dihydrochloride], the inhibition at 200 µM falls from 93% to 91%.

`Cc1ccccc1[C@@H](O)[C@H](CC(C)C)NCCCN1CCCCC1` (racemic) [Compound 47, (1RS,2SR)-4-methyl-1-(2-methylphenyl)-2-(3-piperidinopropylamino)pentan-1-ol dihydrochloride] and `Cc1cccc([C@@H](O)[C@H](CC(C)C)NCCCN2CCCCC2)c1` (racemic) [Compound 49, (1RS,2SR)-4-methyl-1-(3-methylphenyl)-2-(3-piperidinopropylamino)pentan-1-ol dihydrochloride] are the same in inhibition at 200 µM: 100% for the first, 100% for the second.

Compared with `Cc1ccc([C@@H](O)[C@H](CC(C)C)NCCCN2CCCCC2)cc1` (racemic) [Compound 51, (1RS,2SR)-4-methyl-1-(4-methylphenyl)-2-(3-piperidinopropylamino)pentan-1-ol dihydrochloride], `Cc1ccc([C@@H](O)[C@@H](CC(C)C)NCCCN2CCCCC2)cc1` (relative stereo) [Compound 52, (1RS,2RS)-4-methyl-1-(4-methylphenyl)-2-(3-piperidinopropylamino)pentan-1-ol dihyrochloride] is lower in inhibition at 200 µM: 100% for the first, 93% for the second.

Compared with `COc1ccc([C@@H](O)[C@H](CC(C)C)NCCCN2CCCCC2)cc1` (racemic) [Compound 53, (1RS,2SR)-1-(4-methoxyphenyl)-4-methyl-2-(3-piperidinopropylamino)pentan-1-ol dihydrochloride], `CC(C)C[C@H](NCCCN1CCCCC1)[C@H](O)c1ccc(F)cc1` (racemic) [Compound 55, (1RS,2SR)-1-(4-fluorophenyl)-4-methyl-2-(3-piperidinopropylamino)pentan-1-ol dihydrochloride] is higher in inhibition at 200 µM: 91% for the first, 99% for the second.

Going from `CC(C)C[C@H](NCCCN1CCCCC1)[C@H](O)c1ccc(Cl)cc1` (racemic) [Compound 57, (1RS,2SR)-1-(4-chlorophenyl)-4-methyl-2-(3-piperidinopropylamino)pentan-1-ol dihydrochloride] to `CC(C)C[C@@H](NCCCN1CCCCC1)[C@H](O)c1ccc(Cl)cc1` (racemic) [Compound 58, (1RS,2RS)-1-(4-chlorophenyl)-4-methyl-2-(3-piperidinopropylamino)pentan-1-ol dihydrochloride], the inhibition at 200 µM falls from 99% to 97%.

First: CO[C@H](c1ccccc1)[C@H](CCC(C)C)NCCCN1CCCCC1 (racemic) [Compound 59, (1RS,2SR)-5-methyl-1-phenyl-2-(3-piperidinopropylamino)hexan-1-ol methylether dihydrochloride]
Second: CCN(CCCN1CCCCC1)[C@@H](CCC(C)C)[C@H](O)c1ccccc1 (racemic) [Compound 65, (1RS,2SR)-2-[ethyl-(3-piperidinopropyl)amino]-5-methyl-1-phenylhexan-1-ol dihydrochloride]
The inhibition at 200 µM of the first is lower: 97% for the first, 99% for the second.

Tested on: anemic decerebrate rigidity (Wistar male rats)
Assay: Effects on anemic decerebrate rigidity (EMG of M. triceps brachii)
Type: in vivo
Conditions: Rattus norvegicus, iv, 10 min, read-out: Suppression rate (rigidity, EMG pulse area)
Procedure: An anemic decerebrate rigidity sample was prepared principally in accordance with the procedure of Fukuda et al. [Japan. […] Wistar male rats (body weight: 270 to 350 g) were held on their backs and incised at their cervices under etherization. After the trachea and common carotid arteries were exposed, the trachea was cannulated and the bilateral common carotid arteries and esophagus were then double-ligated and cut. Thereafter, its occipital bone was exposed through which a circular hole was bored to double-ligate the centrally extending basilar artery. As each rat started coming out of anesthetization, its front limbs became rigid. Measurement was conducted by recording electromyographic (EMG) response from the muscle of the forelimb (M. triceps brachii) of the rat in the rigid state. The EMG pulses were converted to accumulated values every 10 seconds and recorded as a histogram on a recorder.
The effect of each test compound on the rigidity was evaluated in terms of the suppression rate. This rate was calculated first by determining the area of a decreased EMG pulse part on the histogram upon passage of 10 minutes after administration of a physiological saline solution of each test compound (3 mg/kg) through the femoral vein and then in accordance with the following equation.
A: EMG pulse area when no test compound was administered (control).

First: C[C@H](NCCN1CCCC1)[C@H](O)c1ccccc1 (racemic) [Comparative compound 2, (1RS,2SR)-1-phenyl-2-(2-pyrrolidinoethylamino)propan-1-ol dihydrochloride, reference compound]
Second: C[C@H](NCCN1CCOCC1)[C@H](O)c1ccccc1 (racemic) [Comparative compound 3, (1RS,2SR)-2-(2-morpholinoethylamino)-1-phenylpropan-1-ol dihydrochloride, reference compound]
The inhibition in vivo at 3 mg/kg of the first is higher: 2.2% for the first, 1% for the second.

`C[C@H](NCCN(C)C)[C@H](O)c1ccccc1` (racemic) [Comparative compound 4, (1RS,2SR)-2-(2-dimethylaminoethylamino)-1-phenylpropan-1-ol dihydrochloride, reference compound] gave an inhibition in vivo at 3 mg/kg of 1.1%.

Same assay, conditions: Rattus norvegicus, iv, 10 min; 3 mg/kg through the femoral vein; 10 minutes after administration; read-out: Suppression rate (rigidity, EMG pulse area)

With `Cc1ccc(C(=O)C(C)CN2CCCCC2)cc1` (stereo not drawn) [Comparative compound 5, tolperisone hydrochloride, reference compound] the inhibition in vivo at 3 mg/kg was 4.8%.

Tested on: not listed separately
Assay: Acute toxicity, up-and-down method
Conditions: mouse, in vivo; iv (caudal vein), ddN male mice
Procedure: Using ddN male mice, the acute toxicity level of each test compound was determined in accordance with an up-and-down method. Some of the test compounds used were dissolved in physiological saline and administered through the caudal vein.

`CC(C)C[C@H](NCCCN1CCCCC1)[C@H](O)c1ccccc1.Cl.Cl` (racemic) [Compound 15, (1RS,2SR)-4-methyl-1-phenyl-2-(3-piperidinopropylamino)pentan-1-ol dihydrochloride] and `CC(C)C[C@@H](NCCCN1CCCCC1)[C@H](O)c1ccccc1.Cl.Cl` (racemic) [Compound 16, (1RS,2RS)-4-methyl-1-phenyl-2-(3-piperidinopropylamino)pentan-1-ol dihydrochloride] are within 1.5-fold of each other in LD50: 23.6 mg/kg for the first, 28.8 mg/kg for the second.
